US10975051B2, “Phenylsulfonamido-benzofuran derivatives and uses thereof in the treatment of proliferative diseases” (Memorial Sloan-Kettering Cancer Center, priority 2015, dated 2021)

Columns and labels:
MCL-1 = MCL-1 (Homo sapiens, UniProt Q07820); conditions: background statement; cited from earlier work
BCL-XL = BCL-XL (Homo sapiens, UniProt Q07817); conditions: Oltersdorf et al., Nature, 2005; cited from earlier work
BCL-W = target: T1, BCL-W (Homo sapiens, UniProt Q92843); conditions: Oltersdorf et al., Nature, 2005; cited from earlier work
T1 sequence (Q92843 1-193): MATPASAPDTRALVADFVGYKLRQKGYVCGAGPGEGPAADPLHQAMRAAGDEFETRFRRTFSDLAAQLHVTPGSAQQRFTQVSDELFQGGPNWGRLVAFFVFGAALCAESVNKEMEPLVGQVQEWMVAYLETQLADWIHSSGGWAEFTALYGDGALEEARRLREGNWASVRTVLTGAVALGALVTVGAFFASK

BCL-2 = BCL-2 (Homo sapiens, UniProt P10415); conditions: Oltersdorf et al., Nature, 2005; cited from earlier work
Chain of BCL-2 (P10415 whole entry, species assumed): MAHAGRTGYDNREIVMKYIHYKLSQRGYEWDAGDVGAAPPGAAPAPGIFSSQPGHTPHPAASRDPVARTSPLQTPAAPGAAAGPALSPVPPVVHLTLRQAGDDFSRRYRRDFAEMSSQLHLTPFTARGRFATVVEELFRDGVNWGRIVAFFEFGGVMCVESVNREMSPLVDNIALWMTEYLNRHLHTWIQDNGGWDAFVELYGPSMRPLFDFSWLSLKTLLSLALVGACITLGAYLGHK

[1] = tested on: DMS53, SW1417, and H82 cell lines; assay: apoptotic induction in DMS53, SW1417 and H82 cell lines (selectively addicted to BCL-2, BCL-XL and MCL-1); type: cell-based; conditions: H82 versus DMS53 and SW1417, FIG. 2B
[2] = tested on: MCL-1-addicted cancer cell-line, H23; assay: apoptosis induction in MCL-1-addicted cancer cell line H23; type: cell-based; conditions: H23 cells; for induction of apoptosis: FIG. 1B
[3] = tested on: MCL-1-addicted cancer cell-line H82; assay: apoptosis induction in MCL-1-addicted cancer cell line H82; type: cell-based; conditions: H82 cells, FIG. 1B

Chain of MCL-1 (Q07820 whole entry, species assumed): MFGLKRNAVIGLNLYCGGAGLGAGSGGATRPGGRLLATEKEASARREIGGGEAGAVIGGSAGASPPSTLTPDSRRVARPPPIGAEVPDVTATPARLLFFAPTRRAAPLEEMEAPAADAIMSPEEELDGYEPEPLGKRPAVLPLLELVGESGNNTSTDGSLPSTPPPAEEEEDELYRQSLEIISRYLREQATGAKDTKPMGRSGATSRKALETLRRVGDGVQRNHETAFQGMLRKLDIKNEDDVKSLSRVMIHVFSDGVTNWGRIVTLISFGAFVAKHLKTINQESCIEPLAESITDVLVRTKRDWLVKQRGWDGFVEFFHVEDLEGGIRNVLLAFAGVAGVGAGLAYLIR
Chain of BCL-XL (Q07817 whole entry, species assumed): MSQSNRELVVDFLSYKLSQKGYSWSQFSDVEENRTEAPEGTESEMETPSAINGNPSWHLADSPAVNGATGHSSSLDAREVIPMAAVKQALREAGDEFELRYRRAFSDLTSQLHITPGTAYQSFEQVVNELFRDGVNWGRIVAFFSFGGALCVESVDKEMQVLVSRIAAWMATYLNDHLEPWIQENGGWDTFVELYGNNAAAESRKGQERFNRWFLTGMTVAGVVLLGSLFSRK

Row | SMILES | inhibition of MCL-1 (MCL-1) | binding affinity to BCL-XL (BCL-XL) | binding affinity to BCL-W (BCL-W) | binding affinity to BCL-2 (BCL-2) | selectivity of apoptosis induction in MCL-1 addicted cancer cell line over BCL-2 or BCL-XL addicted cancer cell lines [1] | induction of apoptosis ([2]; 1 µM of compound) | induction of apoptosis ([2]; 1 μM of compound) | EC50 ([2]; Homo sapiens, NCI-H23, FIG. 1A, read-out: EC50 of inducing apoptosis) [nM] | induction of apoptosis ([3]; 1 µM of compound) | induction of apoptosis ([3]; 1 μM of compound)
1 | CC1(C)CCC(c2ccc(Cl)cc2)=C(CN2CCN(c3ccc(C(=O)NS(=O)(=O)c4ccc(N[C@H](CCN5CCOCC5)CSc5ccccc5)c(S(=O)(=O)C(F)(F)F)c4)cc3)CC2)C1 [ABT-263] | do not inhibit | high affinity | high affinity | high affinity | – | – | – | – | – | –
2 | CN(C)CC[C@H](CSc1ccccc1)Nc1ccc(S(=O)(=O)NC(=O)c2ccc(N3CCN(Cc4ccccc4-c4ccc(Cl)cc4)CC3)cc2)cc1[N+](=O)[O-] [ABT-737, (R)-4-(4-((4′-chloro-[1,1′-biphenyl]-2-yl)methyl)piperazin-1-yl)-N-((4-((−4-(dimethylamino)-1-(phenylthio)butan-2-yl)amino)-3-nitrophenyl)sulfonyl)benzamide] | do not inhibit | high affinity | high affinity | high affinity | – | – | – | – | – | –
3 | CCOC(=O)c1c(C)oc2cc(Br)c(NS(=O)(=O)c3ccc(OC)cc3)cc12 [Compound 1] | – | – | – | – | selectively induce apoptosis | robust apoptosis | robust apoptosis | 600 | robust apoptosis | robust apoptosis
